As usually defined, the IC50 is the concentration that inhibits the measured activity by half.

For one experiment, the target named is T1, human NPY2R (Homo sapiens, UniProt P49146).
T1 construct: expressed in transfected cells; host or cells: HEK293-H188-C24 cells
T1 sequence (P49146 1-381): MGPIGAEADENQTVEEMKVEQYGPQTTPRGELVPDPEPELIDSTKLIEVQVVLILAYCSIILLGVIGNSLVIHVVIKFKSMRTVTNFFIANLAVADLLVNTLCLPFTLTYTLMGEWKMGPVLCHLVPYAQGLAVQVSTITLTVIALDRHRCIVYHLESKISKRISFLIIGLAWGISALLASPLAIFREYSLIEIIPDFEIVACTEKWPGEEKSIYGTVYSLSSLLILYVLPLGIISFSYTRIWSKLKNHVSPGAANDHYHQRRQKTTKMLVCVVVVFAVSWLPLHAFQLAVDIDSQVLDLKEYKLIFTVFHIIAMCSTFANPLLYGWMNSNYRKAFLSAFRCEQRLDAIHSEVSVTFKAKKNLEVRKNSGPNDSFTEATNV
The experiment can be described thus: cAMP-lowering action in HEK293-H188-C24 cells transfected with NPY2R (adenosine or forskolin pre-stimulation). In kind it is cell-based. Particulars: BIIE0246 2 μM; adenosine 2 μM.

The target of the next experiment is GluR (UniProt P30082). The experiment can be described thus: LY2409021 block of GGP817 action in HEK293-GluR cells transduced with H188. Format: cell-based. Particulars: read-out: IC50, block of GGP817 agonist action at the GluR, GGP817 300 nM. The text has this: (§1) It is increasingly evident that hybrid peptides have the capacity to stimulate multiple GPCRs that participate in metabolic homeostasis.
(§2) This was established by monitoring its ability to stimulate a 60% maximal ΔFRET in the cAMP assay.

In the next experiment the target is T2, GLP-1R (Homo sapiens, UniProt P43220).
T2 construct: expressed in transfected cells; host or cells: HEK293-GLP-1R cells transduced with the H188 cAMP FRET reporter
T2 sequence (P43220 24-463, species assumed): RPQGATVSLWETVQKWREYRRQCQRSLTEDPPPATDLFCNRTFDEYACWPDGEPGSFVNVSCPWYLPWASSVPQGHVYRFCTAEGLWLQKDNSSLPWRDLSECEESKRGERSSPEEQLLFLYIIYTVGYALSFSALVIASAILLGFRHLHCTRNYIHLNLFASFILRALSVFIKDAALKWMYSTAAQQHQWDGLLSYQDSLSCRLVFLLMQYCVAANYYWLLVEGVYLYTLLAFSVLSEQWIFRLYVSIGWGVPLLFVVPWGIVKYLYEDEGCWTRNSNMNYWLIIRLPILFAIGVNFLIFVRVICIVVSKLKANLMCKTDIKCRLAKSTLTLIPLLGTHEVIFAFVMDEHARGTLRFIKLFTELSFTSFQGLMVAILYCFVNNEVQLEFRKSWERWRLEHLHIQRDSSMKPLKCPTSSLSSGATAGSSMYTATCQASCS
The experiment can be described thus: LY2409021 block of GGP817 action in HEK293-GLP-1R cells transduced with H188. Format: cell-based.
From the text: as §1, §2

Experiment [1] has as its target T3, human neuropeptide Y2 receptor (NPY2R) (human, UniProt P49146).
T3 sequence: T1 sequence (P49146 1-381)
The experiment can be described thus: cell-based or functional assay.

For the molecule `N=C(N)NCCC[C@H](NC(=O)CC1(CC(=O)N2CCN(C3c4ccccc4NC(=O)c4ccccc43)CC2)CCCC1)C(=O)NCCn1c(=O)n(-c2ccccc2)n(-c2ccccc2)c1=O` (stereo partly shown) [BIIE0246], the “effect of antagonist on the cAMP-lowering action of GGP817” value at human NPY2R is listed as “blocked”.
For `Cc1cc(O[C@@H](CCC(F)(F)F)c2ccc(C(=O)NCCC(=O)O)cc2)cc(C)c1-c1ccc(C(C)(C)C)cc1` [LY2409021], the IC50 worked out at 908 nM at GluR and 1600 nM on GLP-1R.
For HSQGTFTSDYSKYLDSRRAQDFVQWLMNTRHYLNLVTRQRY (C-terminal amide (-NH2)) [GGP817], in experiment [1], the “EC50 of NPY2 receptor agonism (H188 FRET)” value is ~3000 nM.

The values are drawn from patent US20190211072A1, “TRI-AGONIST FOR THE GLu, GLP-1 AND NPY2 RECEPTORS” (Syracuse University, priority 2018, published 2019).
